Experimental data taken from ChEMBL document CHEMBL1134148, “Combinatorial synthesis of CCR5 antagonists” (Bioorg Med Chem Lett, 2001).
Activity calls are given as the source filed them. The rule behind the calls is not given here.

Columns and labels:
[1] = biological target: T1, C-C chemokine receptor type 5 (Homo sapiens, UniProt P51681); test: Ability to inhibit binding of [125I]-MIP-1 alpha to C-C chemokine receptor type 5 in Chinese hamster ovary (CHO) cell membranes
[2] = tested on: Human immunodeficiency virus 1; test: Inhibitory concentration for viral growth over 7 days vs YU-2 strain of HIV-1 at 10 uM; format: functional; conditions: Human immunodeficiency virus 1, 168 h
[3] = biological target: T1, C-C chemokine receptor type 5; test: Ability to inhibit binding of [125I]-MIP-1 alpha to C-C chemokine receptor type 5 in Chinese hamster ovary (CHO) cell membranes.
[4] = tested on: Human immunodeficiency virus 1; test: Inhibitory concentration for viral growth over 7 days vs YU-2 strain of HIV-1;NA means No significant activity at 10 uM.; format: functional, organism-based
[5] = biological target: T1, C-C chemokine receptor type 5; test: Ability to inhibit binding of [125I]-MIP-1 alpha to C-C chemokine receptor type 5 in Chinese hamster ovary (CHO) cell membranes;NA means no significant activity.

T1 sequence (P51681 whole entry): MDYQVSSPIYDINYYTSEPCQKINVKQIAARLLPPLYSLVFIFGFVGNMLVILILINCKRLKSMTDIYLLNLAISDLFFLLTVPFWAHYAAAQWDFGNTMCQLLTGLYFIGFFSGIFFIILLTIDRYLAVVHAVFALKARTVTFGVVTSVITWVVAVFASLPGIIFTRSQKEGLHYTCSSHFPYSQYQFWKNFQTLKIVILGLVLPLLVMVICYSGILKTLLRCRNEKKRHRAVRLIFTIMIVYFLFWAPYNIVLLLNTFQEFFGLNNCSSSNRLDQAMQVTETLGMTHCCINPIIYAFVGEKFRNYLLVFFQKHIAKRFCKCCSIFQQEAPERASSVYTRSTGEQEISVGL

| SMILES | IC50 [1] [nM] | IC50 [3] [nM] | also measured |
| --- | --- | --- | --- |
| OC1(CCCc2ccccc2)CCN(C[C@H]2CN(CC3CCCCC3)C[C@@H]2c2ccccc2)CC1 | 1 | – | IC95 [2]: 580 nM |
| CN(CC(CCN1CCC(CCCc2ccccc2)CC1)c1ccccc1)S(=O)(=O)c1cccs1 (stereo unspecified) | – | 3 | IC95 [4]: inactive |
| CN(CC(CCN1CCC(O)(CCCc2ccccc2)CC1)c1ccccc1)S(=O)(=O)c1ccc(-c2ccccn2)s1 (stereo unspecified) | – | 4 | IC95 [2]: 6200 nM |
| c1ccc(CCCC2CCN(C[C@H]3CN(CC4CCCCC4)C[C@@H]3c3ccccc3)CC2)cc1 | 6.5 | – | – |
| O=S(=O)(c1ccc(-c2ccccn2)s1)N1C[C@H](CN2CCC(CCCc3ccccc3)CC2)[C@@H](c2ccccc2)C1 | 60 | – | – |
| O=S(=O)(c1cccs1)N1CC(CN2CCC(O)(CCCc3ccccc3)CC2)[C@@H](c2ccccc2)C1 (stereo partly specified) | 20 | – | – |
| CN(CC1CCCCC1)CC(CCN1CCC(O)(CCCc2ccccc2)CC1)c1ccccc1 (stereo unspecified) | – | – | IC50 [5]: Not Active |
| CN(CC(CCN1CCC(O)(CCCc2ccccc2)CC1)c1ccccc1)S(=O)(=O)c1cccs1 (stereo unspecified) | – | 6.5 | – |
| CN(CC1CCCCC1)CC(CCN1CCC(CCCc2ccccc2)CC1)c1ccccc1 (stereo unspecified) | – | – | IC50 [5]: Not Active |
| O=S(=O)(c1ccc(-c2ccccn2)s1)N1C[C@H](CN2CCC(O)(CCCc3ccccc3)CC2)[C@@H](c2ccccc2)C1 | 41 | – | – |
| CN(CC(CCN1CCC(CCCc2ccccc2)CC1)c1ccccc1)S(=O)(=O)c1ccc(-c2ccccn2)s1 (stereo unspecified) | – | 2 | IC95 [2]: 3100 nM |
| O=S(=O)(c1cccs1)N1C[C@H](CN2CCC(CCCc3ccccc3)CC2)[C@@H](c2ccccc2)C1 | 25 | – | – |
